Patent US11970497B2, “Tricyclic AKR1C3 dependent KARS inhibitors” (Novartis AG, priority 2019, dated 2024)

How the values were obtained:
[1] = system: H460 (NRF2 pathway mutant cell line with high AKR1C3 expression); assay: In vitro cell proliferation assay (CellTiter-Glo), H460; format: cell-based; conditions: Homo sapiens, NCI-H460, 72 h; H460 cells, 3 days, CellTiter-Glo, top concentration 10 μM; read-out: H460 Qualified absolute AC50
Source text: (§1) Cellular Proliferation Assay to Assess Compounds Activity in H460 (NRF2 Pathway Mutant Cell Line with High AKR1C3 Expression) and Hara (NRF2 Pathway Wild Type Cell Line with Low AKR1C3 Expression).
(§2) The cell lines A549 and H460 are NRF2 pathway mutant and specifically contain genetic alterations in KEAP1 (A549: G333C, H460: D236H) (Singh A. et al., 2006 PLoS Medicine 3(10) e420). In these cell lines the NRF2 pathway is constitutively active and these cells express high levels of NRF2 protein and NRF2 pathway target gene AKR1C3. […] They have low AKR1C3 expression.
(§3) In Vitro Cell Proliferation Assay
(§4) Day 1, for H460 800 cells/well or 40 μL of 2×10^4 cells/mL and for Hara 2000 cells/well or 40 μL of 5×10^4 cells/mL medium (RPMI-1640 supplemented with 10% fetal bovine serum and 1% penicillin/streptomycin) were seeded into 384-well tissue culture plates. Day 2, compounds were serially diluted 1:5 to generate 8 point dose response curves and added to cells for a final top concentration of 10 μM. DMSO (1%) control and MG132 (30 μM) controls are added in columns 23 and 24 respectively on each plate for positive and negative control. After incubation for 3 days at 37° C./5% CO2, 30 μl of CellTiter-Glo reagent (Promega) was added and the plates were incubated for 10 min on plate shaker. The amount of luminescence was determined using a Perkin Elmer Envision plate reader. CellTiter-Glo luminescence values of cells treated with DMSO and MG132 controls were used to normalize the data and calculate percentage activity and AC50s of compounds using the Helios Software suite.

[2] = system: Hara (NRF2 pathway wild type cell line with low AKR1C3 expression); assay: In vitro cell proliferation assay (CellTiter-Glo), Hara; format: cell-based; conditions: 72 h; Hara cells, 3 days, CellTiter-Glo, top concentration 10 μM; read-out: HARA Qualified absolute AC50
Source text: as §1, §2, §3, §4

Structure (SMILES) | AC50 [1] [nM] | AC50 [2] [nM]
CN1c2ccc(F)cc2C(=O)CC12CCN(C(=O)NCc1ccc(F)c(NCCOP(=O)(O)O)c1)CC2 [Example 28] | 52 | > 10000
CCN1c2ccc(F)cc2C(=O)CC12CCN(C(=O)NCc1ccc(F)c(N)c1)CC2 [Example 29, N-(3-amino-4-fluorobenzyl)-1′-ethyl-6′-fluoro-4′-oxo-3′,4′-dihydro-1′H-spiro[piperidine-4,2′-quinoline]-1-carboxamide] | 54 | > 10000
NS(=O)(=O)c1cc(CNC(=O)N2CCC3(CC2)CC(=O)c2cc(F)ccc2N3)ccc1F [Example 30, 6′-fluoro-N-(4-fluoro-3-sulfamoylbenzyl)-4′-oxo-3′,4′-dihydro-1′H-spiro[piperidine-4,2′-quinoline]-1-carboxamide] | 61 | > 10000
O=C1CC2(CCN(C(=O)NCc3ccccc3)CC2)Nc2ccc(F)cc21 [Example 33, N-benzyl-6′-fluoro-4′-oxo-3′,4′-dihydro-1′H-spiro[piperidine-4,2′-quinoline]-1-carboxamide] | 75 | 1190
O=C1CC2(CCN(C(=O)NCc3cccc(-c4cnco4)c3)CC2)Nc2c(F)cc(F)cc21 [Example 35, 6′,8′-difluoro-N-(3-(oxazol-5-yl)benzyl)-4′-oxo-3′,4′-dihydro-1′H-spiro[piperidine-4,2′-quinoline]-1-carboxamide] | 77 | 2720
NC(=O)c1coc(CNC(=O)N2CCC3(CC2)CC(=O)c2cc(F)cc(F)c2N3)c1 [Example 38, N-((4-carbamoylfuran-2-yl)methyl)-6′,8′-difluoro-4′-oxo-3′,4′-dihydro-1′H-spiro[piperidine-4,2′-quinoline]-1-carboxamide] | 82 | > 10000
O=C1CC2(CCN(C(=O)NCc3ccc(O)cc3)CC2)Nc2ccc(F)cc21 [Example 39, 6′-fluoro-N-(4-hydroxybenzyl)-4′-oxo-3′,4′-dihydro-1′H-spiro[piperidine-4,2′-quinoline]-1-carboxamide] | 82 | > 10000
CN1c2ccc(F)cc2C(=O)CC12CCN(C(=O)NCc1ccc(F)c(C(N)=O)c1)CC2 [Example 41, N-(3-carbamoyl-4-fluorobenzyl)-6′-fluoro-1′-methyl-4′-oxo-3′,4′-dihydro-1′H-spiro[piperidine-4,2′-quinoline]-1-carboxamide] | 93 | > 10000
CN1c2ccc(F)cc2C(=O)CC12CCN(C(=O)NCc1ccc(F)c(N)c1F)CC2 [Example 42, N-(3-amino-2,4-difluorobenzyl)-6′-fluoro-1′-methyl-4′-oxo-3′,4′-dihydro-1′H-spiro[piperidine-4,2′-quinoline]-1-carboxamide] | 94 | > 10000
O=C1CC2(CCN(C(=O)NCc3ccc(F)cc3O)CC2)Nc2ccc(F)cc21 [Example 43, 6′-fluoro-N-(4-fluoro-2-hydroxybenzyl)-4′-oxo-3′,4′-dihydro-1′H-spiro[piperidine-4,2′-quinoline]-1-carboxamide] | 99 | > 10000
CN1c2ccc(F)cc2C(=O)CC12CCN(C(=O)NCc1ccc(F)c(NC[C@H](O)CO)c1)CC2 [Example 45, (S)—N-(3-((2,3-dihydroxypropyl)amino)-4-fluorobenzyl)-6′-fluoro-1′-methyl-4′-oxo-3′,4′-dihydro-1′H-spiro[piperidine-4,2′-quinoline]-1-carboxamide] | 100 | > 10000
O=C1CC2(CCN(C(=O)NCc3ccoc3)CC2)Nc2c(F)cc(F)cc21 [Example 46, 6′,8′-difluoro-N-(furan-3-ylmethyl)-4′-oxo-3′,4′-dihydro-1′H-spiro[piperidine-4,2′-quinoline]-1-carboxamide] | 105 | 2940
O=C1CC2(CCN(C(=O)NCc3cc[nH]n3)CC2)Nc2ccc(F)cc21 [Example 47, N-((1H-pyrazol-3-yl)methyl)-6′-fluoro-4′-oxo-3′,4′-dihydro-1′H-spiro[piperidine-4,2′-quinoline]-1-carboxamide] | 106 | > 10000
O=C(NCCO)c1cc(CNC(=O)N2CCC3(CC2)CC(=O)c2cc(F)ccc2N3)ccc1F [Example 48, 6′-fluoro-N-(4-fluoro-3-((2-hydroxyethyl)carbamoyl)benzyl)-4′-oxo-3′,4′-dihydro-1′H-spiro[piperidine-4,2′-quinoline]-1-carboxamide] | 108 | 7960
Nc1cc(F)c(CNC(=O)N2CCC3(CC2)CC(=O)c2cc(F)ccc2N3)cc1F [Example 49, N-(4-amino-2,5-difluorobenzyl)-6′-fluoro-4′-oxo-3′,4′-dihydro-1′H-spiro[piperidine-4,2′-quinoline]-1-carboxamide] | 113 | > 10000
CCN1c2ccc(F)cc2C(=O)CC12CCN(C(=O)NCc1cc(N)c(F)cc1F)CC2 [Example 50, N-(5-amino-2,4-difluorobenzyl)-1′-ethyl-6′-fluoro-4′-oxo-3′,4′-dihydro-1′H-spiro[piperidine-4,2′-quinoline]-1-carboxamide] | 122 | > 10000
O=C1CC2(CCN(C(=O)NCc3ccc(F)cc3OCC(F)(F)F)CC2)Nc2ccc(F)cc21 [Example 51, 6′-fluoro-N-(4-fluoro-2-(2,2,2-trifluoroethoxy)benzyl)-4′-oxo-3′,4′-dihydro-1′H-spiro[piperidine-4,2′-quinoline]-1-carboxamide] | 128 | 4750
CCNc1cc(F)ccc1CNC(=O)N1CCC2(CC1)CC(=O)c1cc(F)ccc1N2C [Example 52, N-(2-(ethylamino)-4-fluorobenzyl)-6′-fluoro-1′-methyl-4′-oxo-3′,4′-dihydro-1′H-spiro[piperidine-4,2′-quinoline]-1-carboxamide] | 139 | > 10000
O=C1CC2(CCN(C(=O)NCc3cccc4c3OCO4)CC2)Nc2c(F)cc(F)cc21 [Example 53, N-(benzo[d][1,3]dioxol-4-ylmethyl)-6′,8′-difluoro-4′-oxo-3′,4′-dihydro-1′H-spiro[piperidine-4,2′-quinoline]-1-carboxamide] | 141 | 2020
O=C1CC2(CCN(C(=O)NCc3ccc(O)cc3)CC2)Nc2c(F)cc(F)cc21 [Example 54, 6′,8′-difluoro-N-(4-hydroxybenzyl)-4′-oxo-3′,4′-dihydro-1′H-spiro[piperidine-4,2′-quinoline]-1-carboxamide] | 3 | 9850
CN1c2ccc(F)cc2C(=O)CC12CCN(C(=O)NCc1ccc(F)c(NS(C)(=O)=O)c1)CC2 [Example 55, 6′-fluoro-N-(4-fluoro-3-(methylsulfonamido)benzyl)-1′-methyl-4′-oxo-3′,4′-dihydro-1′H-spiro[piperidine-4,2′-quinoline]-1-carboxamide] | 150 | 5170
Nc1ccc(CNC(=O)N2CCC3(CC2)CC(=O)c2cc(F)ccc2N3)cc1F [Example 56, N-(4-amino-3-fluorobenzyl)-6′-fluoro-4′-oxo-3′,4′-dihydro-1′H-spiro[piperidine-4,2′-quinoline]-1-carboxamide] | 166 | > 10000
Nc1ccc(CNC(=O)N2CCC3(CC2)CC(=O)c2cc(F)ccc2N3)c(F)c1F [Example 57, N-(4-amino-2,3-difluorobenzyl)-6′-fluoro-4′-oxo-3′,4′-dihydro-1′H-spiro[piperidine-4,2′-quinoline]-1-carboxamide] | 170 | > 10000
COC(=O)c1cc(CNC(=O)N2CCC3(CC2)CC(=O)c2cc(F)ccc2N3)ccc1F [Example 61, methyl 2-fluoro-5-((6′-fluoro-4′-oxo-3′,4′-dihydro-1′H-spiro[piperidine-4,2′-quinoline]-1-carboxamido)methyl)benzoate] | 205 | 3040
CN1c2ccc(F)cc2C(=O)CC12CCN(C(=O)NCc1ccc(F)c(CC(N)=O)c1)CC2 [Example 62, N-(3-(2-amino-2-oxoethyl)-4-fluorobenzyl)-6′-fluoro-1′-methyl-4′-oxo-3′,4′-dihydro-1′H-spiro[piperidine-4,2′-quinoline]-1-carboxamide] | 212 | > 10000
O=C1CC2(CCN(C(=O)NCc3ncccc3O)CC2)Nc2c(F)cc(F)cc21 [Example 63, 6′,8′-difluoro-N-((3-hydroxypyridin-2-yl)methyl)-4′-oxo-3′,4′-dihydro-1′H-spiro[piperidine-4,2′-quinoline]-1-carboxamide] | 222 | > 10000
CNC(=O)c1cc(CNC(=O)N2CCC3(CC2)CC(=O)c2cc(F)ccc2N3)ccc1F [Example 64, 6′-fluoro-N-(4-fluoro-3-(methylcarbamoyl)benzyl)-4′-oxo-3′,4′-dihydro-1′H-spiro[piperidine-4,2′-quinoline]-1-carboxamide] | 222 | > 10000
